The assay addresses T1, CFTR (Homo sapiens, UniProt P13569).
T1 construct: expressed in transfected cells; host or cells: COS7 cells infected with the recombinant Sendai virus SeV/CFTR (CFTR cDNA in the NotI site of pSeV18+b(+))
In words: Whole-cell patch clamp of COS7 cells infected with CFTR-expressing Sendai virus. It is filed as cell-based. To be noted: COS7 cells expressing sample-1 SeV/CFTR. On the procedure:
COS7 cells were infected with the prepared CFTR-expressing Sendai virus (sample-1 SeV/CFTR), and the obtained infected cells were analyzed by the whole-cell patch clamp technique. […] A glass pipette containing a pipette solution was contacted with a cell within a bath solution, and negative pressure was applied to remove the cell membranes. In this occasion, the pipette solution contains 145 mM NMDG^+, 148.4 mM Cl^−, […], 5 mM ATP, 10 mM glucose, 0.1 mM EGTA, and 10 mM HEPES (titrated by Tris, pH 7.4), and the bath solution contains 141 mM Na^+, 152.4 mM Cl^−, […], 5 mM K^+, 1.7 mM Mg^2+, 2 mM Ca^2+, 10 mM glucose, 0.1 mM EGTA, and 10 mM HEPES (titrated by Tris, pH 7.4). The effects of forskolin on the membrane current in COS7 cells expressing sample-1 SeV/CFTR were examined by whole-cell recording (FIG. 14). […] The influx current was reproduced by adding forskolin again after a single wash, and was again suppressed by glibenclamide, which confirmed that the observed change in current was a specific drug-induced response.

Each structure is given as a SMILES string.

T1 sequence (P13569 whole entry): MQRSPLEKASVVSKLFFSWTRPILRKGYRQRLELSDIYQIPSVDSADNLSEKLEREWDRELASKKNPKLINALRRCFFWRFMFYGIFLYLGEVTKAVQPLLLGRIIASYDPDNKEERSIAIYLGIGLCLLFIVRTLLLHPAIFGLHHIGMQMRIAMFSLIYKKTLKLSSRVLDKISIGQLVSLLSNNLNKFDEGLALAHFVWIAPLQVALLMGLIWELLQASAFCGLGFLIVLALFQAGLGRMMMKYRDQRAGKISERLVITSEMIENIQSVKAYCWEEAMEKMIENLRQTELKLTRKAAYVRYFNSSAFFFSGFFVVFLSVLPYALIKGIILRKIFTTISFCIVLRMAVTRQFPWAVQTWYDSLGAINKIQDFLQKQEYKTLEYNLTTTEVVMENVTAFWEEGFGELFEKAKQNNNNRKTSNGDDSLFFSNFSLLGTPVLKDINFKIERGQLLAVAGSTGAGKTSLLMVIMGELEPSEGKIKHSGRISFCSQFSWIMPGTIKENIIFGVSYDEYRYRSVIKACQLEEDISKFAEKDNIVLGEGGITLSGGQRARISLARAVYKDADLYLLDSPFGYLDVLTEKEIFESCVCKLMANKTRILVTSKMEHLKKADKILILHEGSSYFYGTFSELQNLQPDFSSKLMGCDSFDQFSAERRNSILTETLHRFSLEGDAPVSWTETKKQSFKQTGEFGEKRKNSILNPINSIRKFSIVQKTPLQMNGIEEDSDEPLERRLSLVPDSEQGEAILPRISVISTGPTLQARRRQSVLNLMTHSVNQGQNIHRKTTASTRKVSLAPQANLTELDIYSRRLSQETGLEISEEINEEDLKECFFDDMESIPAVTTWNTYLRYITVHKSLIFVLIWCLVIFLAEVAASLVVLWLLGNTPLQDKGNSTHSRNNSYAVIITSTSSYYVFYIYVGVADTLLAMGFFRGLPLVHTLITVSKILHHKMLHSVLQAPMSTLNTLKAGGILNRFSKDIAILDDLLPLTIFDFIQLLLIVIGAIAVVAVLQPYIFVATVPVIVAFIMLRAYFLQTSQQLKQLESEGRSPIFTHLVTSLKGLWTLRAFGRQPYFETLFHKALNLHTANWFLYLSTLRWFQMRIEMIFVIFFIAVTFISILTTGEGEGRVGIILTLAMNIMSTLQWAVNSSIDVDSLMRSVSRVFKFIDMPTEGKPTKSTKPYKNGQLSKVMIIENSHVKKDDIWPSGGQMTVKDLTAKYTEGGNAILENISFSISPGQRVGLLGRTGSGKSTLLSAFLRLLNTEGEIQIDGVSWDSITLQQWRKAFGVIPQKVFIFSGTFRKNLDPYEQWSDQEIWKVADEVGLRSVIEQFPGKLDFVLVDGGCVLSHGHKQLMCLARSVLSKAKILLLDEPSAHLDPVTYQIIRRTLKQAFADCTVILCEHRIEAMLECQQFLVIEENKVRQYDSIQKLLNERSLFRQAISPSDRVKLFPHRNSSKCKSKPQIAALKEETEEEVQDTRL

Take `COc1ccc(Cl)cc1C(=O)NCCc1ccc(S(=O)(=O)NC(=O)NC2CCCCC2)cc1` [Glibenclamide]: the “effect on forskolin-induced Cl− currents” value (300 μM) is “inhibited”. For the same molecule, the “effect on forskolin-induced influx current” value (whole-cell recording, reproduced after wash (FIG. 14)) is “suppressed”.

The values are drawn from patent publication US7314614B1, “Recombinant sendai virus vector for introducing exogenous genes to airway epithelia” (priority 1999, dated 2008).
